From patent publication US7666890B2, “Synthesis and herbicidal activity of 1- (2-substituted benzo[d]thiazol-5-yl)-1H-1,2,4-triazol-5(4H)-one derivatives” (Huazhong Normal University, priority 2007, dated 2010)

Legend:
Assay in all cases: Test of herbicidal activities (greenhouse pot method)
Type in all cases: in vivo
Settings in all cases: single dose 300 g ai./h, treated before/after germination, 15 days later, greenhouse pot
Amaranthus retroflexus = test system: Amaranthus retroflexus
In short: (§1)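 Greenhouse pot test at a single dose of 300 g ai./h, applied by spray tower pre- or post-emergence, with grasses at the 2-leaf stage, in triplicate with a blank control. Plants were kept at 15–30 °C. Inhibition was graded after 15 days: A 90–100%, B 80–<90%, C 60–<80%, D 50–<60%, E <50%.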

Brassica juncea = test system: Brassica juncea
In short: as §1

Chenopodium album = test system: Chenopodium album
In short: as §1

Digiatria sanguinalis = test system: Digiatria sanguinalis
In short: as §1

Echinochloa crusgalli = test system: Echinochloa crusgalli
In short: as §1

Setaria viridis = test system: Setaria viridis
In short: as §1

Row | Compound | Herbicidal activity Amaranthus retroflexus (inhibition level) (Amaranthus retroflexus) | Herbicidal activity Brassica juncea (inhibition level) (Brassica juncea) | Herbicidal activity Chenopodium album (inhibition level) (Chenopodium album) | Herbicidal activity Digiatria sanguinalis (inhibition level) (Digiatria sanguinalis) | Herbicidal activity Echinochloa crusgalli (inhibition level) (Echinochloa crusgalli) | Herbicidal activity Setaria viridis (inhibition level) (Setaria viridis)
1 | Cc1nn(-c2cc3nc(SCc4ccccc4Cl)sc3cc2F)c(=O)n1C(F)F [Compound 24] | A (90 ≦ A ≦ 100%) | C (60 ≦ C < 80%) | B (80 ≦ B < 90%) | B (80 ≦ B < 90%) | C (60 ≦ C < 80%) | D (50 ≦ D < 60%)
2 | Cc1nn(-c2cc3nc(S(C)(=O)=O)sc3cc2Cl)c(=O)n1C(F)F [Compound 68] | A (90 ≦ A ≦ 100%) | B (80 ≦ B < 90%) | C (60 ≦ C < 80%) | B (80 ≦ B < 90%) | A (90 ≦ A ≦ 100%) | B (80 ≦ B < 90%)
3 | Cc1nn(-c2cc3nc(S(=O)(=O)Cc4ccccc4)sc3cc2F)c(=O)n1C [Compound 34] | B (80 ≦ B < 90%) | D (50 ≦ D < 60%) | C (60 ≦ C < 80%) | A (90 ≦ A ≦ 100%) | B (80 ≦ B < 90%) | A (90 ≦ A ≦ 100%)
4 | CCCSc1nc2cc(-n3nc(C)n(C(F)F)c3=O)c(Br)cc2s1 [Compound 81] | A (90 ≦ A ≦ 100%) | A (90 ≦ A ≦ 100%) | B (80 ≦ B < 90%) | D (50 ≦ D < 60%) | B (80 ≦ B < 90%) | B (80 ≦ B < 90%)
5 | C=CC[S+]([O-])c1nc2cc(-n3nc(C)n(C(F)F)c3=O)c(Br)cc2s1 (stereo not drawn) [Compound 117] | C (60 ≦ C < 80%) | C (60 ≦ C < 80%) | B (80 ≦ B < 90%) | B (80 ≦ B < 90%) | C (60 ≦ C < 80%) | E (E < 50%)
6 | Cc1nn(-c2cc3nc(S(=O)(=O)Cc4ccc(Cl)cc4)sc3cc2Cl)c(=O)n1C(F)F [Compound 41] | C (60 ≦ C < 80%) | C (60 ≦ C < 80%) | D (50 ≦ D < 60%) | B (80 ≦ B < 90%) | D (50 ≦ D < 60%) | C (60 ≦ C < 80%)
7 | CCOC(=O)C[S+]([O-])c1nc2cc(-n3nc(C)n(C(F)F)c3=O)c(Br)cc2s1 (stereo not drawn) [Compound 111] | A (90 ≦ A ≦ 100%) | B (80 ≦ B < 90%) | E (E < 50%) | C (60 ≦ C < 80%) | A (90 ≦ A ≦ 100%) | C (60 ≦ C < 80%)
8 | Cc1nn(-c2cc3nc(S(=O)(=O)Cc4cccc(F)c4)sc3cc2Cl)c(=O)n1C(F)F [Compound 44] | B (80 ≦ B < 90%) | C (60 ≦ C < 80%) | C (60 ≦ C < 80%) | C (60 ≦ C < 80%) | C (60 ≦ C < 80%) | B (80 ≦ B < 90%)
9 | Cc1nn(-c2cc3nc(SCc4ccc(Br)cc4)sc3cc2Cl)c(=O)n1C(F)F [Compound 6] | B (80 ≦ B < 90%) | C (60 ≦ C < 80%) | B (80 ≦ B < 90%) | E (E < 50%) | B (80 ≦ B < 90%) | C (60 ≦ C < 80%)
10 | Cc1nn(-c2cc3nc(S(=O)(=O)Cc4c(F)cccc4F)sc3cc2Cl)c(=O)n1C(F)F [Compound 38] | C (60 ≦ C < 80%) | D (50 ≦ D < 60%) | C (60 ≦ C < 80%) | D (50 ≦ D < 60%) | C (60 ≦ C < 80%) | B (80 ≦ B < 90%)
11 | CCCCCCS(=O)(=O)c1nc2cc(-n3nc(C)n(C(F)F)c3=O)c(F)cc2s1 [Compound 55] | C (60 ≦ C < 80%) | C (60 ≦ C < 80%) | A (90 ≦ A ≦ 100%) | B (80 ≦ B < 90%) | E (E < 50%) | B (80 ≦ B < 90%)
12 | Cc1nn(-c2cc3nc(SCc4cccc(Cl)c4)sc3cc2F)c(=O)n1C(F)F [Compound 23] | A (90 ≦ A ≦ 100%) | E (E < 50%) | D (50 ≦ D < 60%) | C (60 ≦ C < 80%) | C (60 ≦ C < 80%) | D (50 ≦ D < 60%)
13 | C=CCSc1nc2cc(-n3nc(C)n(C(F)F)c3=O)c(Br)cc2s1 [Compound 88] | A (90 ≦ A ≦ 100%) | A (90 ≦ A ≦ 100%) | B (80 ≦ B < 90%) | A (90 ≦ A ≦ 100%) | B (80 ≦ B < 90%) | D (50 ≦ D < 60%)
14 | Cc1nn(-c2cc3nc(S(=O)(=O)Cc4ccccc4F)sc3cc2F)c(=O)n1C(F)F [Compound 52] | C (60 ≦ C < 80%) | B (80 ≦ B < 90%) | B (80 ≦ B < 90%) | A (90 ≦ A ≦ 100%) | E (E < 50%) | B (80 ≦ B < 90%)
15 | CCCCCCS(=O)(=O)c1nc2cc(-n3nc(C)n(C(F)F)c3=O)c(Cl)cc2s1 [Compound 57] | A (90 ≦ A ≦ 100%) | B (80 ≦ B < 90%) | C (60 ≦ C < 80%) | A (90 ≦ A ≦ 100%) | D (50 ≦ D < 60%) | D (50 ≦ D < 60%)
16 | CCOC(=O)C(C)Sc1nc2cc(-n3nc(C)n(C(F)F)c3=O)c(Br)cc2s1 (stereo not drawn) [Compound 87] | B (80 ≦ B < 90%) | A (90 ≦ A ≦ 100%) | B (80 ≦ B < 90%) | B (80 ≦ B < 90%) | B (80 ≦ B < 90%) | A (90 ≦ A ≦ 100%)
17 | CSc1nc2cc(-n3nc(C)n(C)c3=O)c(F)cc2s1 [Compound 31] | A (90 ≦ A ≦ 100%) | B (80 ≦ B < 90%) | C (60 ≦ C < 80%) | A (90 ≦ A ≦ 100%) | B (80 ≦ B < 90%) | B (80 ≦ B < 90%)
18 | CCOC(=O)CSc1nc2cc(-n3nc(C(F)(F)F)n(C(F)F)c3=O)c(Br)cc2s1 [Compound 127] | B (80 ≦ B < 90%) | B (80 ≦ B < 90%) | B (80 ≦ B < 90%) | B (80 ≦ B < 90%) | C (60 ≦ C < 80%) | D (50 ≦ D < 60%)
